“Also recorded” adds a separate entry of the source. Peptide text beside a SMILES is read from it.
Tests used:
[1] = cited from earlier work
Experimental: Despite the recent introduction of new antibiotics against difficult-to-treat bacteria, colistin is still used in the critically ill setting, especially as part of combination therapies. This drug is a antibiotic; it is administered as intravenous colistimethate (CMS) and then undergoes extensive plasmatic hydrolysis. CMS is mainly metabolized by the renal route apart from the amount that is modified to colistin. This agent is cleared by extra-renal, yet unknown, mechanisms, but its plasmatic levels may increase in the presence of renal failure due to the reduced clearance a ... || From a pharmacokinetic standpoint, CMS nebulization may overcome its negligible ELF penetration after intravenous administration. Although many factors may interfere with the reliability of the detected lung antibiotics concentration, including the diagnostic technique, the binding to inflammatory molecules, and the heterogeneity of lung aeration, it is widely accepted that CMS nebulization is the only strategy to obtain alveolar levels above MIC for mostly Gram-negative MDR pathogens. When treating VAP due to COS bacteria, a correct drug dose and nebulizer strategy should be reco ...

[2] = test system: Acinetobacter baumannii isolates; experiment: Minimum inhibitory concentration of AB isolates; type: cell-based; settings: median [interquartile range]; values available for 79 patients; Micronaut AST system-based BMD, VITEK 2 AST-N397 card; EUCAST version 11.0
Experimental: AB isolates were identified by using matrix-assisted laser desorption ionization-time of flight mass spectrometry (MALDI-TOF MS). Minimum inhibitory concentrations (MICs) were determined by a Micronaut AST system-based BMD, VITEK 2 AST-N397 card, according to the manufacturer’s instructions. EUCAST (version 11.0, 2021) clinical breakpoints were used to interpret MICs.

[3] = ELF pharmacokinetics of colistin and CMS after nebulization (micro-BAL, LC-MS/MS); type: in vivo, ICU patients
Experimental: According to patients’ respiratory status, two micro-bronchoalveolar lavages (BALs) (40 mL of sterile 0.9% saline solution were blindly instilled through a telescopic catheter and immediately aspirated in a trap) were performed at steady state, before nebulization and 1 h after the end. ELF colistin concentration (COLELF) was calculated from BAL concentration (COLBAL) using urea as a dilution marker: COLELF = COLBAL X urea dilution index (plasma urea concentration/BAL urea concentration).
Purification and separation of colistin and CMS were performed using and modifying the Gobin assay. BAL samples were extracted by solid-phase extraction followed by evaporation to dryness and reconstitution in mobile phase. The chromatographic separation was carried out on an AQUITY UPLC C18 column. Polymyxin B was used as internal standard. The detection was performed on a triple quadrupole tandem mass spectrometer using multi-reaction monitoring via an electrospray ionization source with positive ionization mode.

[4] = Safety and adverse events of colistin nebulization (DHHS-CTCAE version 3.0); type: in vivo, ICU patients; settings: 5 MIU q8, vibrating mesh nebulizer; 134 patients, 1376 days of nebulization
Experimental: Patients received 5 MIU of CMS (Colimycine®, Sanofi, Paris, France) dissolved in 6 mL of saline solution by nebulization over 30 min using a vibrating-mesh nebulizer (Aeroneb Pro®, Aerogen, Galway, […]) every 8 h. Solutions for nebulization were freshly prepared. During aerosol delivery, all patients were sedated and received assisted/controlled mechanical ventilation with a tidal volume of 6–8 mL/kg of predicted body weight and respiratory rates of 12–15 cycles/min. The humidifier was removed and the nebulizer was inserted near the Y-piece connector on the inspiratory arm
VAP, septic shock, and acute kidney injury requiring continuous […] replacement therapy were defined according to current recommendations. VAP was diagnosed in the presence of radiological and clinical signs consisting of a new and persistent infiltrate on the chest radiograph associated with two of the three following criteria: purulent tracheal aspirates, hyperthermia > 38 °C or hypothermia < 36 °C, and peripheral leukocytosis > 10,000/μL or < 1500/μL. […] Safety and adverse events (AE) were determined through the biochemical abnormalities documented in medical records according to the Department of Health and Human Services—Common Terminology Criteria for Adverse Events (DHHS-CTCAE version 3.0) classification. […]

[5] = test system: multidrug-resistant / COS Gram-negative VAP; settings: cited from earlier work
Excerpt: There is pre-clinical evidence to support vibrating-mesh nebulizers, over jet and ultrasonic ones.

[6] = in vivo; cited from earlier work
Excerpt: In addition, the observed safety profile may be further improved by correct CMS ...

[7] = following 24 h of dosing, vibrating meshes, ten patients with MDR VAP
[8] = 326 patients with COS Gram-negative VAP, aerosolized 2 MIU q 8 h, jet nebulizer

Row | Compound | Samples with colistin ELF concentrations above 10 mcg/mL ([1]; 20 patients, 1 MIU nebulization, jet and ultrasonic machines, samples at 1 h after the aerosol) [%] | Trough-predicted colistin ELF level, 3 MII nebulized CMS [1, 7] [µg/mL] | Trough-predicted colistin ELF level, 5 MIU nebulized CMS [1, 7] [µg/mL] | ELF penetration after intravenous administration (in words) [1] | MIC [2] | ELF concentration one hour after nebulization ([3]; median [IQR], 7 patients, after 72 h of nebulized therapy (CMS 5 MIU q8), micro-BAL, urea dilution index, UPLC C18, tandem MS) | ELF colistin concentrations relative to CRAB minimal-inhibitory concentration (in words) ([3]; nebulized CMS 5 MIU q8) | Drug-related / pulmonary adverse events of nebulization (in words) [4] | Clinical cure rate vs controls treated with intravenous antibiotics (in words) ([5]; 5 MIU q8 h, vibrating plate nebulizer, 44 patients with multidrug-resistant AB and Pseudomonas aeruginosa vs 122 controls) | DAY-14 clinical failure rate (in words) [5, 8] | Mortality (in words) [5, 8] | Bronchospasm [6] [%] | Episodes of bronchospasm (in words) [6] | Neuromuscular toxicity [6] [%] | Reduction in the rate of renal failure [6] [%]
1 | CC[C@H](C)CCCCC(=O)N[C@@H](CCN)C(=O)N[C@H](C(=O)N[C@@H](CCN)C(=O)N[C@H]1CCNC(=O)[C@H]([C@@H](C)O)NC(=O)[C@H](CCN)NC(=O)[C@H](CCN)NC(=O)[C@H](CC(C)C)NC(=O)[C@@H](CC(C)C)NC(=O)[C@H](CCN)NC1=O)[C@@H](C)O [colistin] (HELM PEPTIDE1{[CC[C@H](C)CCCCC(=O)[*:2]].[Dab].T.[Dab].[Dab].[Dab].[dL].L.[Dab].[Dab].T}$PEPTIDE1,PEPTIDE1,5:R3-11:R2$$$V2.0) | 25 | 120.4 | 200.7 | minimal | 1 [0.5–1] mcg/mL | 121.7 [40.1–143.1] mcg/mL | far above | did not observe any; also recorded: without observing any | – | – | – | – | – | – | –
2 | colistimethate [CMS] | – | – | – | negligible | – | – | – | did not observe any | similar | significantly lower | without affecting | 2 | did not report any | 3 | 33

Source: paper PMC9855104, “Use of High-Dose Nebulized Colistimethate in Patients with Colistin-Only Susceptible Acinetobacter baumannii VAP: Clinical, Pharmacokinetic and Microbiome Features” (Antibiotics, 2023)
